According to ChEMBL document CHEMBL4422630, “Identification of substituted 5-membered heterocyclic compounds as potential anti-leukemic agents” (Eur J Med Chem, 2019):
Values belong to the compound of their own block, whether it stands above or below them. Active and inactive are the calls of the source. No cut-off for these calls is given here.

What was measured:
[1] = tested on: SUP-B15; assay: Antiproliferative activity against human SUP-B15 assessed as reduction in cell viability after 72 hrs by CellTiter-Glo assay; format: functional, cell-based; conditions: SUP-B15, 72 h
[2] = tested on: B-ALL; assay: Antiproliferative activity against mouse B-ALL BCR-ABL double knockout cells assessed as reduction in cell viability after 72 hrs by CellTiter-Glo assay; format: functional, cell-based
[3] = Therapeutic index, ratio of EC50 for human BJ cells to EC50 for mouse B-ALL cells expressing wild type BCR-ABL; format: toxicity; conditions: human BJ cells versus mouse B-ALL cells expressing wild type BCR-ABL; read-out: Ratio EC50
[4] = tested on: UoC-B1; assay: Antiproliferative activity against human UOCB1 assessed as reduction in cell viability after 72 hrs by CellTiter-Glo assay; format: functional, cell-based; conditions: UoC-B1, 72 h
[5] = tested on: B-ALL; assay: Antiproliferative activity against mouse B-ALL cells expressing wild type BCR-ABL assessed as reduction in cell viability after 72 hrs by CellTiter-Glo assay; format: functional, cell-based
[6] = tested on: NALM-6; assay: Antiproliferative activity against human NALM6 assessed as reduction in cell viability after 72 hrs by CellTiter-Glo assay; format: functional, cell-based; conditions: NALM-6, 72 h
[7] = tested on: KOPN-8; assay: Antiproliferative activity against human KOPN8 assessed as reduction in cell viability after 72 hrs by CellTiter-Glo assay; format: functional, cell-based; conditions: KOPN-8, 72 h
[8] = tested on: BJ; assay: Antiproliferative activity against human BJ assessed as cell viability after 72 hrs by CellTiter-Glo assay; format: functional, cell-based
[9] = Apparent permeability of compound form basolateral to apical side in human Caco2 cells; format: ADME, cell-based; conditions: Caco-2
[10] = Apparent permeability of compound form apical to basolateral side in human Caco2 cells; format: ADME, cell-based; conditions: Caco-2
[11] = Permeability of compound at pH 7.4 by PAMPA; format: ADME; conditions: for Papp: read-out: Peff
[12] = Permeability of compound at pH 7.4 assessed as drug retention by PAMPA; format: ADME
[13] = Efflux ratio of apparent permeability across basolateral to apical side over apical to basolateral side in human Caco2 cells; format: ADME, cell-based; conditions: Caco-2
[14] = tested on: SUP-B15; assay: Induction of apoptosis in human SUP-B15 cells assessed as increase in caspase 3/7 activity after 24 hrs by caspase-Glo 3/7 reagent based luminescence assay; format: functional, cell-based
[15] = tested on: SUP-B15; assay: Induction of apoptosis in human SUP-B15 cells assessed as late apoptotic cells level after 24 hrs by Annexin V and propidium iodide staining based flow cytometry (reference value: 13.5%); format: functional
[16] = tested on: K562; assay: Antiproliferative activity against human K562 assessed as reduction in cell viability after 72 hrs by CellTiter-Glo assay; format: functional, cell-based; conditions: K562, 72 h
[17] = tested on: SUP-B15; assay: Induction of apoptosis in human SUP-B15 cells assessed as late apoptotic cells level after 24 hrs by Annexin V and propidium iodide staining based flow cytometry (reference value: 83%); format: functional
[18] = tested on: SUP-B15; assay: Induction of apoptosis in human SUP-B15 cells assessed as decrease in cell viability at […] after 24 hrs by ApoTox-Glo triplex assay; format: functional, cell-based
[19] = Intrinsic clearance in mouse microsomes; format: ADME, Microsome
[20] = tested on: KOPN-8; assay: Induction of apoptosis in human KOPN8 cells assessed as late apoptotic cells level after 24 hrs by Annexin V and propidium iodide staining based flow cytometry (reference value: 2%); format: functional
[21] = tested on: SUM149PT; assay: Cytotoxicity against human SUM149 cells at 1 uM after 24 hrs by propidium iodide staining-based fluorescence assay relative to control; format: functional, cell-based
[22] = Half life in human microsomes; format: ADME, Microsome
[23] = Half life in human plasma; format: ADME, cell-free
[24] = tested on: SUP-B15; assay: Induction of apoptosis in human SUP-B15 cells assessed as decrease in cell viability at 5 uM after 24 hrs by Annexin V/propidium iodide staining-based flow cytometric analysis; format: functional
[25] = tested on: KOPN-8; assay: Cell cycle arrest in human KOPN8 cells assessed as increase in accumulation of cells at S phase at 5 uM after 24 hrs by propidium iodide staining-based flow cytometric analysis; format: functional
[26] = tested on: B-ALL; assay: Induction of apoptosis in mouse B-ALL BCR-ABL double knockout cells assessed as increase in caspase 3/7 activity after 24 hrs by caspase-Glo 3/7 reagent based luminescence assay; format: functional, cell-based
[27] = tested on: MDA-MB-231; assay: Cytotoxicity against human MDA-MB-231 cells up to 30 uM after 24 hrs by propidium iodide staining-based fluorescence assay; format: functional, cell-based
[28] = tested on: KOPN-8; assay: Cell cycle arrest in human KOPN8 cells at 5 uM after 24 hrs by propidium iodide staining-based flow cytometric analysis; format: functional
[29] = Half life in simulated gastric fluid; format: ADME
[30] = Half life in mouse plasma; format: ADME, cell-free
[31] = tested on: MV4-11; assay: Antiproliferative activity against human MV411 assessed as reduction in cell viability after 72 hrs by CellTiter-Glo assay; format: functional, cell-based; conditions: MV4-11, 72 h
[32] = tested on: MDA-MB-231; assay: Cytotoxicity against human MDA-MB-231 cells at 30 uM after 24 hrs by propidium iodide staining-based fluorescence assay; format: functional, cell-based
[33] = Half life in mouse microsomes; format: ADME, Microsome
[34] = tested on: KOPN-8; assay: Induction of apoptosis in human KOPN8 cells assessed as decrease in cell viability at 5 uM after 24 hrs by Annexin V/propidium iodide staining-based flow cytometric analysis; format: functional
[35] = tested on: SUP-B15; assay: Cytotoxicity in human SUP-B15 cells assessed as decrease in cell viability after 24 hrs by bis-AAF-RF110 dye based assay; format: functional
[36] = tested on: KOPN-8; assay: Induction of apoptosis in human KOPN8 cells assessed as late apoptotic cells level after 24 hrs by Annexin V and propidium iodide staining based flow cytometry (reference value: 96.4%); format: functional
[37] = tested on: SUP-B15; assay: Cell cycle arrest in human SUP-B15 cells assessed as accumulation of cells at G1/G0 phase at 5 uM after 24 hrs by propidium iodide staining-based flow cytometric analysis; format: functional
[38] = Intrinsic clearance in human microsomes; format: ADME, Microsome

SMILES: CS(=O)(=O)c1ccc(-c2cccc3c2OC(CNC(=O)c2ccccc2F)C3)cc1 (configuration not stated)
EC50 [1]: > 43.3 µM | EC50 [2]: 36.4 µM | selectivity ratio [3]: > 5 | EC50 [4]: > 43.3 µM | EC50 [5]: 8.88 µM | EC50 [6]: 1.75 µM | EC50 [7]: > 43.3 µM | EC50 [8]: > 43.3 µM

SMILES: NC(=O)N1c2ccccc2C=Cc2ccccc21 [CARBAMAZEPINE]
Papp B→A [9]: 418 nm/s | Papp A→B [10]: 524 nm/s | Papp [11]: 2660 nm/s | permeability [12]: 21.9% | efflux ratio [13]: 0.8

SMILES: COc1ccc(O)c(-c2cc(-c3cc(Cl)ccc3O)[nH]n2)c1
EC50 [1]: > 43.3 µM | EC50 [2]: 11.2 µM | selectivity ratio [3]: 5 | EC50 [4]: 13.6 µM | EC50 [5]: 4.94 µM | EC50 [6]: 0.005 µM | EC50 [7]: 15.8 µM | EC50 [8]: 25.1 µM

SMILES: CCCSc1ccc2nc(NC(=O)OC)[nH]c2c1 [ALBENDAZOLE]
Papp [11]: 2840 nm/s | permeability [12]: 44.1%

SMILES: COc1cc(-c2cc3ccccc3[nH]2)[nH]c1/C=C1\N=C(C)C=C1C
EC50 [1]: 25.9 µM | EC50 [2]: 12.5 µM | selectivity ratio [3]: 7 | EC50 [4]: 1.49 to 1.5 µM | EC50 [5]: 1.24 µM | EC50 [6]: 1.07 µM | EC50 [7]: 14.7 µM | EC50 [8]: 8.71 µM

Further lines, with some results ahead:

EC50 [16]: 8.36 µM | CLint scaled [19]: 1.01 L/h/kg | Papp B→A [9]: 22.6 nm/s | half-life [22]: 0.86 h | half-life [23]: > 48 h | half-life [29]: > 48 h | Papp A→B [10]: 72.6 nm/s | half-life [30]: > 48 h | Peff [11]: 19164 nm/s | EC50 [31]: 0.603 µM | permeability [12]: 53.6% | half-life [33]: 3.41 h | efflux ratio [13]: 0.31 | CLint scaled [38]: 1.46 L/h/kg
SMILES: CC(C)C(=O)Nc1ccc2oc(-c3ccc(C(C)(C)C)cc3)nc2c1
Activity [14]: Active | Activity [15]: 6.3% | EC50 [1]: 1.32 µM | Activity [17]: 69.2% | Activity [18]: Active | EC50 [2]: > 43.3 µM | selectivity ratio [3]: > 9 | Activity [20]: 4.8% | Activity [21]: Active | Activity [24]: Active | EC50 [4]: > 43.3 µM | Activity [25]: Active | EC50 [5]: 4.65 µM | Activity [26]: inactive | Activity [27]: inactive | Activity [28]: inactive | EC50 [6]: 0.604 µM | Activity [32]: Active | EC50 [7]: 1.11 µM | EC50 [8]: > 43.3 µM | Activity [34]: Active | Activity [35]: Active | Activity [36]: 94.4% | Activity [37]: Active

half-life [23]: 0.42 h | half-life [30]: 2.11 h
SMILES: CC1CC(OC(=O)C(O)c2ccccc2)CC(C)(C)N1C (configuration not stated) [EUCATROPINE]

Papp B→A [9]: 131 nm/s | Papp A→B [10]: 6.21 nm/s | efflux ratio [13]: 21.1
SMILES: CC[C@]1(O)C[C@@H]2CN(CCc3c([nH]c4ccccc34)[C@@](C(=O)OC)(c3cc4c(cc3OC)N(C)[C@H]3[C@@](O)(C(=O)OC)[C@H](OC(C)=O)[C@]5(CC)C=CCN6CC[C@]43[C@@H]65)C2)C1 [VINBLASTINE]

EC50 [31]: > 10 µM
SMILES: COc1ccc(O)c(C(=O)NCCc2ccc(-c3cnc(C)s3)cc2)c1
EC50 [1]: > 43.3 µM | EC50 [2]: 22.7 µM | EC50 [4]: 24.7 µM | EC50 [5]: 9.49 µM | EC50 [6]: 1.01 µM | EC50 [7]: 36.3 µM | EC50 [8]: 8.25 µM
